Experimental data from patent US9951068B2 (Proximagen Limited, priority 2013, dated 2018).

Each molecule was assayed against purified recombinantly expressed human SSAO (Homo sapiens (Human), UniProt Q16853) (assay: SSAO enzyme inhibition assay (HRP-coupled hydrogen peroxide detection or 14C-benzaldehyde detection, benzylamine substrate)). Settings: SSAO inhibitory activity, human recombinant SSAO, RT.
purified recombinantly expressed human SSAO, sequence (Q16853 29-763): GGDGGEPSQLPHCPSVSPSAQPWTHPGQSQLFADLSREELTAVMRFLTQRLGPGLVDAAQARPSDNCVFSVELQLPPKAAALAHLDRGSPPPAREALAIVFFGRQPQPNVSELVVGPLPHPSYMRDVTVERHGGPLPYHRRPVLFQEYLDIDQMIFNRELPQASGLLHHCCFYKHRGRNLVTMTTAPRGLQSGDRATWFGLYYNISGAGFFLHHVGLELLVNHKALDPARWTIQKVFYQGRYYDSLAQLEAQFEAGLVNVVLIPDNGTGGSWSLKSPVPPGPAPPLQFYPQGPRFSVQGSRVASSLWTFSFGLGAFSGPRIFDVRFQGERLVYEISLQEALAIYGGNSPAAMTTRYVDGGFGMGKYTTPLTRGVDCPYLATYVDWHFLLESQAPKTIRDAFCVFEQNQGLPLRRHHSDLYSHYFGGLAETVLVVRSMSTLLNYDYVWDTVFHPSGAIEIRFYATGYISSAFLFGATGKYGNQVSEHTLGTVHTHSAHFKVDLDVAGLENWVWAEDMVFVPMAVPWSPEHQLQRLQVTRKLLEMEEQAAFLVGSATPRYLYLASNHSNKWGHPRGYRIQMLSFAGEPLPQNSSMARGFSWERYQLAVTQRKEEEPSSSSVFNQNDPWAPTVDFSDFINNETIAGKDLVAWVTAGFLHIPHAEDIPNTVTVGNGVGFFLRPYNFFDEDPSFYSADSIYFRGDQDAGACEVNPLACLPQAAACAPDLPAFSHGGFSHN
Format: biochemical
Method: All primary assays were performed at RT. with purified recombinantly expressed human SSAO. Enzyme was prepared essentially as described in Öhman et al. (Protein Expression and Purification 46 (2006) 321-331). In addition, secondary- and selectivity assays were performed using SSAO prepared from various tissues or purified rat recombinant SSAO. The enzyme activity was assayed with benzylamine as substrate by measuring either benzaldehyde production, using ^14C-labeled substrate, or by utilizing the production of hydrogen peroxide in a horseradish peroxidase (HRP) coupled reaction. Briefly, test compounds were dissolved in dimethyl sulfoxide (DMSO) to a concentration of 10 mM. Dose-response measurements were assayed by either creating 1:10 serial dilutions in DMSO to produce a 7 point curve or by making 1:3 serial dilutions in DMSO to produce 11 point curves.
In a horseradish peroxidase (HRP) coupled reaction, hydrogen peroxide oxidation of 10-acetyl-3,7-dihydroxyphenoxazine produced resorufin, which is a highly fluorescent compound (Zhout and Panchuk-Voloshina. Analytical Biochemistry 253 (1997) 169-174; Amplex® Red Hydrogen Peroxide/peroxidase Assay kit, Invitrogen A22188). Enzyme and compounds in 50 mM sodium phosphate, pH 7.4 were set to pre-incubate in flat-bottomed microtiter plates for approximately 15 min before initiating the reaction by addition of a mixture of HRP, benzylamine and Amplex reagent. Benzylamine concentration was fixed at a concentration corresponding to the Michaelis constant, determined using standard procedures. Fluorescence intensity was then measured at several time points during 1-2 h, exciting at 544 nm and reading the emission at 590 nm. For the human SSAO assay final concentrations of the reagents in the assay wells were: SSAO enzyme 1 ug/ml, benzylamine 100 uM, Amplex reagent 20 uM, HRP 0.1 U/mL and varying concentrations of test compound. The inhibition was measured as % decrease of the signal compared to a control without inhibitor (only diluted DMSO). The background signal from a sample containing no SSAO enzyme was subtracted from all data points. Data was fitted to a four parameter logistic model and IC50 values were calculated using the GraphPad Prism 4 or XLfit 4 programs.
SSAO activity was assayed using 14C-labeled benzylamine and analysed by measuring radioactive benzaldehyde. In a white 96-well optiplate (Packard), 20 uL of diluted test compound was pre-incubated at room temperature with 20 uL SSAO enzyme for approximately 15 min with continuous agitation. All dilutions were made with PBS. The reaction was initiated by adding 20 uL of the benzylamine substrate solution containing [7-14C] Benzylamine hydrochloride (CFA589, GE Healthcare). The plate was incubated for 1 h as above after which the reaction was stopped by acidification (10 uL 1M aq HCl). Then 90 uL Micro Scint-E solution (Perkin-Elmer) was added to each well and the plate was continuously mixed for 15 min. Phase separation occurred instantly and activity was read in a Topcount scintillation counter (Perkin-Elmer). In the final reaction well, the human recombinant SSAO concentration was 10 ug/ml. In order to optimize sensitivity, the substrate concentration was decreased as compared to the HRP coupled assay in order to get a higher fraction of radioactive product. In the human SSAO assay, benzylamine concentration was 40 uM (0.2 uCi/mL). Data was analysed as above.
An IC50 of under 50 nM was found for `Cc1ccc(-n2c(-c3cnc(NCCOC(C)C)nc3)nc3ccncc32)cc1` [Example 39, 5-[3-(4-Methylphenyl)-3H-imidazo[4,5-c]pyridin-2-yl]-N-[2-(propan-2-yloxy)ethyl]pyrimidin-2-amine] in this work.
An IC50 of under 50 nM was found for `Clc1ccc(-n2c(-c3cnc(N4CCOCC4)nc3)nc3ccncc32)cc1` [Example 51, 4-{5-[3-(4-Chlorophenyl)-3H-imidazo[4,5-c]pyridin-2-yl]pyrimidin-2-yl}morpholine] in this work.
An IC50 of under 50 nM was found for `CCOCCNc1ncc(-c2nc3ccncc3n2-c2ccc(C)cc2)cn1` [Example 43, N-(2-Ethoxyethyl)-5-[3-(4-methylphenyl)-3H-imidazo[4,5-c]pyridin-2-yl]pyrimidin-2-amine] in this work.
An IC50 of under 50 nM was found for `Cn1ccc(-c2cc3ccncc3n2-c2ccc(Cl)cc2)cc1=O` [Example 143, 4-[1-(4-Chlorophenyl)-1H-pyrrolo[2,3-c]pyridin-2-yl]-1-methyl-1,2-dihydropyridin-2-one] in this work.
An IC50 of under 50 nM was found for `Cc1nc(N2CCOCC2)ncc1-c1nc2ccncc2n1-c1ccc(Cl)cc1F` [Example 27, 4-{5-[3-(4-Chloro-2-fluorophenyl)-3H-imidazo[4,5-c]pyridin-2-yl]-4-methylpyrimidin-2-yl}morpholine] in this work.
An IC50 of under 50 nM was found for `CS(=O)(=O)NC1CCN(c2ccc(-c3nc4ccncc4n3-c3ccc(Cl)cc3)cn2)CC1` [Example 88, N-(1-{5-[3-(4-Chlorophenyl)-3H-imidazo[4,5-c]pyridin-2-yl]pyridin-2-yl}piperidin-4-yl)methanesulfonamide] in this work.
An IC50 of under 50 nM was found for `Fc1ccc(-n2c(-c3ccc(OC4CCOCC4)nc3)nc3ccncc32)cc1` [Example 113, 5-[3-(4-Fluorophenyl)-3H-imidazo[4,5-c]pyridin-2-yl]-2-(oxan-4-yloxy)pyridine] in this work.
An IC50 of under 50 nM was found for `Clc1ccc(-n2c(-c3ccc(CN4CCOCC4)nc3)cc3ccncc32)cc1` [Example 140, 4-({5-[1-(4-Chlorophenyl)-1H-pyrrolo[2,3-c]pyridin-2-yl]pyridin-2-yl}methyl)morpholine] in this work.
An IC50 of under 50 nM was found for `Cc1ccc(-n2c(-c3cnc(N4C[C@@H](C)O[C@@H](C)C4)nc3)nc3ccncc32)cn1` [Example 118, (2R,6S)-2,6-Dimethyl-4-{5-[3-(6-methylpyridin-3-yl)-3H-imidazo[4,5-c]pyridin-2-yl]pyrimidin-2-yl}morpholine] in this work.
An IC50 of under 50 nM was found for `NC1CCN(c2ccc(-c3nc4ccncc4n3-c3ccc(Cl)cc3)cn2)CC1` [Example 8, 1-{5-[3-(4-Chlorophenyl)-3H-imidazo[4,5-c]pyridin-2-yl]pyridin-2-yl}piperidin-4-amine] in this work.
An IC50 of under 50 nM was found for `Cc1cnccc1-c1cc2ccncc2n1-c1ccc(Cl)cc1` [Example 154, 4-[1-(4-Chlorophenyl)-1H-pyrrolo[2,3-c]pyridin-2-yl]-3-methylpyridine] in this work.
An IC50 of under 50 nM was found for `Cc1ccc(-n2c(-c3ccc(N4C[C@@H](C)O[C@@H](C)C4)nc3)nc3ccncc32)nc1` [Example 104, (2R,6S)-2,6-Dimethyl-4-{5-[3-(5-methylpyridin-2-yl)-3H-imidazo[4,5-c]pyridin-2-yl]pyridin-2-yl}morpholine] in this work.
An IC50 of under 50 nM was found for `Fc1cncc(-c2cc3ccncc3n2-c2ccc(Cl)cc2)c1` [Example 148, 3-[1-(4-Chlorophenyl)-1H-pyrrolo[2,3-c]pyridin-2-yl]-5-fluoropyridine] in this work.
An IC50 of under 50 nM was found for `Fc1ccc(-n2c(-c3ccc(N4CCOCC4)nc3)nc3ccncc32)c(F)c1` [Example 41, 4-{5-[3-(2,4-Difluorophenyl)-3H-imidazo[4,5-c]pyridin-2-yl]pyridin-2-yl}morpholine] in this work.
An IC50 of under 50 nM was found for `Fc1ccc(-n2c(-c3cnc(NCC4CC4)nc3)nc3ccncc32)cc1` [Example 9, N-(Cyclopropylmethyl)-5-[3-(4-fluorophenyl)-3H-imidazo[4,5-c]pyridin-2-yl]pyrimidin-2-amine] in this work.
An IC50 of under 50 nM was found for `Cc1ccc(-n2c(-c3cnc(N4CCOCC4)nc3)nc3ccncc32)nc1` [Example 79, 4-{5-[3-(5-Methylpyridin-2-yl)-3H-imidazo[4,5-c]pyridin-2-yl]pyrimidin-2-yl}morpholine] in this work.
An IC50 of under 50 nM was found for `Fc1ccccc1-n1c(-c2ccc(N3CCOCC3)nc2)nc2ccncc21` [Example 68, 4-{5-[3-(2-Fluorophenyl)-3H-imidazo[4,5-c]pyridin-2-yl]pyridin-2-yl}morpholine] in this work.
An IC50 of under 50 nM was found for `Clc1ccc(-n2c(-c3ccc(CN4CCOCC4)cc3)nc3ccncc32)cc1` [Example 49, 4-({4-[3-(4-Chlorophenyl)-3H-imidazo[4,5-c]pyridin-2-yl]phenyl}methyl)morpholine] in this work.
An IC50 of under 50 nM was found for `Cc1ccc(-n2c(-c3cnc(N4CCOCC4)cc3C)nc3ccncc32)cn1` [Example 107, 4-{4-Methyl-5-[3-(6-methylpyridin-3-yl)-3H-imidazo[4,5-c]pyridin-2-yl]pyridin-2-yl}morpholine] in this work.
An IC50 of 200 to 1200 nM was found for `O=c1cc(-c2cc3ccncc3n2-c2ccccc2)ccn1C1CC1` [Example 155, 1-Cyclopropyl-4-{1-phenyl-1H-pyrrolo[2,3-c]pyridin-2-yl}-1,2-dihydropyridin-2-one] in this work.
An IC50 of under 50 nM was found for `CN(C)c1ncc(-c2cc3ccncc3n2-c2ccc(Cl)cc2)cn1` [Example 137, 5-[1-(4-Chlorophenyl)-1H-pyrrolo[2,3-c]pyridin-2-yl]-N,N-dimethylpyrimidin-2-amine; bis(trifluoroacetic acid)] in this work.
An IC50 of 50 to 200 nM was found for `Cc1cc(-n2cccn2)ncc1-c1nc2ccncc2n1-c1ccc(F)cc1` [Example 102, 5-[3-(4-Fluorophenyl)-3H-imidazo[4,5-c]pyridin-2-yl]-4-methyl-2-(1H-pyrazol-1-yl)pyridine] in this work.
An IC50 of under 50 nM was found for `COCCCNc1ncc(-c2nc3ccncc3n2-c2ccc(C)cc2)cn1` [Example 37, N-(3-Methoxypropyl)-5-[3-(4-methylphenyl)-3H-imidazo[4,5-c]pyridin-2-yl]pyrimidin-2-amine] in this work.
An IC50 of under 50 nM was found for `O=c1cc(-c2cc3ccncc3n2-c2ccc(Cl)cc2)ccn1C1CC1` [Example 138, 4-[1-(4-Chlorophenyl)-1H-pyrrolo[2,3-c]pyridin-2-yl]-1-cyclopropyl-1,2-dihydropyridin-2-one] in this work.
An IC50 of under 50 nM was found for `Clc1ccc(-n2c(-c3cnc(NC4CCOCC4)nc3)cc3ccncc32)cc1` [Example 139, 5-[1-(4-Chlorophenyl)-1H-pyrrolo[2,3-c]pyridin-2-yl]-N-(oxan-4-yl)pyrimidin-2-amine] in this work.
An IC50 of under 50 nM was found for `CC(=O)N1CCCN(c2ccc(-c3nc4ccncc4n3-c3ccc(F)cc3)cn2)CC1` [Example 87, 1-(4-{5-[3-(4-Fluorophenyl)-3H-imidazo[4,5-c]pyridin-2-yl]pyridin-2-yl}-1,4-diazepan-1-yl)ethan-1-one; bis(trifluoroacetic acid)] in this work.
An IC50 of under 50 nM was found for `Cn1ccc(-c2nc3ccncc3n2-c2ccc(Cl)cc2)cc1=O` [Example 32, 4-[3-(4-Chlorophenyl)-3H-imidazo[4,5-c]pyridin-2-yl]-1-methyl-1,2-dihydropyridin-2-one] in this work.
An IC50 of under 50 nM was found for `O=c1cc(N2CCOCC2)[nH]cc1-c1nc2ccncc2n1-c1ccc(F)cc1` [Example 99, 5-[3-(4-Fluorophenyl)-3H-imidazo[4,5-c]pyridin-2-yl]-2-(morpholin-4-yl)-1,4-dihydropyridin-4-one] in this work.
An IC50 of under 50 nM was found for `Fc1cc(Cl)ccc1-n1c(-c2cnc(N3CCCC3)nc2)nc2ccncc21` [Example 83, 5-[3-(4-Chloro-2-fluorophenyl)-3H-imidazo[4,5-c]pyridin-2-yl]-2-(pyrrolidin-1-yl)pyrimidine] in this work.
